Laboratory results as given in ChEMBL document CHEMBL1201862, “PubChem BioAssay data set” (2004).
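Cultured in 96-well plates, cells were exposed to test compound for 48 hours across five concentrations. The concentration for 50% growth inhibition is given as GI50.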 Calls of active or inactive are those of the source. Rule as the data show it: active = GI50 up to about 1.1 µM and inactive = higher.

Columns and labels:
Experiment in all cases: inhibition of tumour cell growth, NCI panel, 48 h
HOP-62 = system: HOP-62
RXF 393 = system: RXF 393
A549 = system: A549
PC-3 = system: PC-3
M14 = system: M14
TK-10 = system: TK-10
OVCAR-5 = system: OVCAR-5
NCI-H23 = system: NCI-H23
OVCAR-3 = system: OVCAR-3
UO-31 = system: UO-31
HCC 2998 = system: HCC 2998
LOX IMVI = system: LOX IMVI
MDA-MB-231 = system: MDA-MB-231
NCI-H226 = system: NCI-H226
UACC-257 = system: UACC-257
Hs-578T = system: Hs-578T
786-0 = system: 786-0
NCI-H522 = system: NCI-H522
SF-268 = system: SF-268
CAKI-1 = system: CAKI-1
SK-MEL-5 = system: SK-MEL-5
ACHN = system: ACHN
EKVX = system: EKVX
BT-549 = system: BT-549
SF-295 = system: SF-295
COLO 205 = system: COLO 205
MCF7 = system: MCF7
MDA-N = system: MDA-N
IGROV-1 = system: IGROV-1
UACC-62 = system: UACC-62
SF-539 = system: SF-539
Malme-3M = system: Malme-3M
DU-145 = system: DU-145
HCT-15 = system: HCT-15
HCT-116 = system: HCT-116
NCI-H460 = system: NCI-H460
SK-OV-3 = system: SK-OV-3
SNB-19 = system: SNB-19
NCI/ADR-RES = system: NCI/ADR-RES
KM12 = system: KM12
U-251 = system: U-251
SW-620 = system: SW-620
RPMI-8226 = system: RPMI-8226
OVCAR-4 = system: OVCAR-4
SK-MEL-2 = system: SK-MEL-2
SNB-75 = system: SNB-75
OVCAR-8 = system: OVCAR-8
HOP-92 = system: HOP-92
MOLT-4 = system: MOLT-4
K562 = system: K562
HT-29 = system: HT-29
SK-MEL-28 = system: SK-MEL-28
MDA-MB-435 = system: MDA-MB-435
A498 = system: A498
SR = system: SR
SN12C = system: SN12C
HL-60 = system: HL-60
CCRF-CEM = system: CCRF-CEM

Question: `NC(N)=NCCC(O)(P(=O)(O)O)P(=O)(O)O` was tested. Which GI50 (HOP-62) did it give?
Answer: > 100 µM (inactive)

Question: And the GI50 (RXF 393)?
Answer: > 100 µM (inactive)

Question: What about the GI50 (A549) of the same compound?
Answer: > 100 µM (inactive)

Question: What about the GI50 (PC-3) of the same compound?
Answer: > 100 µM (inactive)

Question: What about the GI50 (M14) of the same compound?
Answer: > 100 µM (inactive)

Question: What about the GI50 (TK-10) of the same compound?
Answer: > 100 µM (inactive)

Question: And the GI50 (OVCAR-5)?
Answer: > 100 µM (inactive)

Question: What about the GI50 (NCI-H23) of the same compound?
Answer: > 100 µM (inactive)

Question: What about the GI50 (OVCAR-3) of the same compound?
Answer: > 100 µM (inactive)

Question: And the GI50 (UO-31)?
Answer: > 100 µM (inactive)

Question: And the GI50 (HCC 2998)?
Answer: > 100 µM (inactive)

Question: What about the GI50 (LOX IMVI) of the same compound?
Answer: > 100 µM (inactive)

Question: What about the GI50 (MDA-MB-231) of the same compound?
Answer: > 100 µM (inactive)

Question: What about the GI50 (NCI-H226) of the same compound?
Answer: > 100 µM (inactive)

Question: And the GI50 (UACC-257)?
Answer: > 100 µM (inactive)

Question: What about the GI50 (Hs-578T) of the same compound?
Answer: 15 µM (inactive)

Question: And the GI50 (786-0)?
Answer: 46.9 µM (inactive)

Question: And the GI50 (NCI-H522)?
Answer: > 100 µM (inactive)

Question: And the GI50 (SF-268)?
Answer: > 100 µM (inactive)

Question: And the GI50 (CAKI-1)?
Answer: > 100 µM (inactive)

Question: And the GI50 (SK-MEL-5)?
Answer: > 100 µM (inactive)

Question: And the GI50 (ACHN)?
Answer: > 100 µM (inactive)

Question: And the GI50 (EKVX)?
Answer: > 100 µM (inactive)

Question: And the GI50 (BT-549)?
Answer: > 100 µM (inactive)

Question: And the GI50 (SF-295)?
Answer: > 100 µM (inactive)

Question: And the GI50 (COLO 205)?
Answer: > 100 µM (inactive)

Question: What about the GI50 (MCF7) of the same compound?
Answer: > 100 µM (inactive)

Question: And the GI50 (MDA-N)?
Answer: > 100 µM (inactive)

Question: What about the GI50 (IGROV-1) of the same compound?
Answer: > 100 µM (inactive)

Question: What about the GI50 (UACC-62) of the same compound?
Answer: > 100 µM (inactive)

Question: What about the GI50 (SF-539) of the same compound?
Answer: > 100 µM (inactive)

Question: And the GI50 (Malme-3M)?
Answer: > 100 µM (inactive)

Question: And the GI50 (DU-145)?
Answer: > 100 µM (inactive)

Question: And the GI50 (HCT-15)?
Answer: > 100 µM

Question: What about the GI50 (HCT-116) of the same compound?
Answer: > 100 µM (inactive)

Question: And the GI50 (NCI-H460)?
Answer: > 100 µM (inactive)

Question: What about the GI50 (SK-OV-3) of the same compound?
Answer: > 100 µM (inactive)

Question: What about the GI50 (SNB-19) of the same compound?
Answer: > 100 µM (inactive)

Question: And the GI50 (NCI/ADR-RES)?
Answer: > 100 µM (inactive)

Question: What about the GI50 (KM12) of the same compound?
Answer: > 100 µM (inactive)

Question: Which results are given for `C/C=C\C(CC(=O)NCCc1cn(C(=O)OCc2ccccc2)c2ccccc12)CC(=O)OC` (centres undefined)?
Answer: GI50 (HOP-62): > 100 µM (inactive); GI50 (U-251): > 100 µM (inactive); GI50 (SW-620): > 100 µM (inactive); GI50 (RXF 393): 56.4 µM (inactive); GI50 (A549): 50.5 µM (inactive); GI50 (PC-3): 50.2 µM (inactive); GI50 (M14): 86.7 µM (inactive); GI50 (TK-10): > 100 µM (inactive); GI50 (OVCAR-5): > 100 µM (inactive); GI50 (NCI-H23): 89.5 µM (inactive); GI50 (OVCAR-3): 69.7 µM (inactive); GI50 (RPMI-8226): 58.7 µM (inactive); GI50 (UO-31): 50.8 µM (inactive); GI50 (OVCAR-4): 35.9 µM (inactive); GI50 (HCC 2998): > 100 µM (inactive); GI50 (SK-MEL-2): > 100 µM (inactive); GI50 (MDA-MB-231): > 100 µM (inactive); GI50 (UACC-257): 52.8 µM (inactive); GI50 (Hs-578T): > 100 µM (inactive); GI50 (SNB-75): > 100 µM (inactive); GI50 (786-0): > 100 µM (inactive); GI50 (NCI-H522): 48.8 µM (inactive); GI50 (SF-268): > 100 µM (inactive); GI50 (CAKI-1): > 100 µM (inactive); GI50 (SK-MEL-5): 34.9 µM (inactive); GI50 (ACHN): > 100 µM (inactive); GI50 (EKVX): 45.2 µM (inactive); GI50 (BT-549): 60 µM (inactive); GI50 (SF-295): 57 µM (inactive); GI50 (COLO 205): 40.6 µM (inactive); GI50 (OVCAR-8): > 100 µM (inactive); GI50 (MCF7): 46.6 µM (inactive); GI50 (MDA-N): 79.1 µM (inactive); GI50 (IGROV-1): 76.7 µM (inactive); GI50 (HOP-92): 69 µM (inactive); GI50 (UACC-62): 90.4 µM (inactive); GI50 (MOLT-4): 48 µM (inactive); GI50 (Malme-3M): > 100 µM (inactive); GI50 (K562): 71.1 µM (inactive); GI50 (HT-29): 48.5 µM (inactive); GI50 (DU-145): > 100 µM (inactive); GI50 (HCT-15): > 100 µM; GI50 (HCT-116): 91.4 µM (inactive); GI50 (NCI-H460): > 100 µM (inactive); GI50 (SK-MEL-28): > 100 µM (inactive); GI50 (MDA-MB-435): 42.3 µM (inactive); GI50 (SK-OV-3): > 100 µM (inactive); GI50 (SNB-19): 63.1 µM (inactive); GI50 (NCI/ADR-RES): 41.8 µM (inactive); GI50 (KM12): 62.5 µM (inactive); GI50 (A498): > 100 µM (inactive)

Question: With `CCC(C)c1c(Cl)nc(Cl)nc1Cl` (centres undefined) as the compound, how does the GI50 (HOP-62) read?
Answer: 4.72 µM (inactive)

Question: What about the GI50 (U-251) of the same compound?
Answer: 4.16 µM (inactive)

Question: And the GI50 (SR)?
Answer: 1.25 µM (inactive)

Question: What about the GI50 (SW-620) of the same compound?
Answer: 3.71 µM (inactive)

Question: And the GI50 (RXF 393)?
Answer: 8.02 µM (inactive)

Question: What about the GI50 (A549) of the same compound?
Answer: > 10 µM (inactive)

Question: And the GI50 (PC-3)?
Answer: 12.7 µM (inactive)

Question: And the GI50 (SN12C)?
Answer: 6.89 µM (inactive)

Question: What about the GI50 (M14) of the same compound?
Answer: 1.44 µM (inactive)

Question: And the GI50 (TK-10)?
Answer: 21.3 µM (inactive)

Question: And the GI50 (OVCAR-5)?
Answer: 16.7 µM (inactive)

Question: And the GI50 (NCI-H23)?
Answer: 2.64 µM (inactive)

Question: What about the GI50 (OVCAR-3) of the same compound?
Answer: 4.57 µM (inactive)

Question: What about the GI50 (RPMI-8226) of the same compound?
Answer: 11 µM (inactive)

Question: What about the GI50 (UO-31) of the same compound?
Answer: 17.9 µM (inactive)

Question: And the GI50 (OVCAR-4)?
Answer: 16.9 µM (inactive)

Question: And the GI50 (HCC 2998)?
Answer: 11.4 µM (inactive)

Question: What about the GI50 (LOX IMVI) of the same compound?
Answer: 0.44 µM (active)

Question: And the GI50 (SK-MEL-2)?
Answer: 20.9 µM (inactive)

Question: What about the GI50 (NCI-H226) of the same compound?
Answer: 2.86 µM (inactive)

Question: And the GI50 (UACC-257)?
Answer: > 10 µM (inactive)

Question: And the GI50 (HL-60)?
Answer: 2.99 µM (inactive)

Question: What about the GI50 (Hs-578T) of the same compound?
Answer: 21.6 µM (inactive)

Question: What about the GI50 (SNB-75) of the same compound?
Answer: 13.8 µM (inactive)

Question: What about the GI50 (786-0) of the same compound?
Answer: 10.9 µM (inactive)

Question: What about the GI50 (NCI-H522) of the same compound?
Answer: 0.582 µM (active)

Question: What about the GI50 (SF-268) of the same compound?
Answer: 8.04 µM (inactive)

Question: What about the GI50 (SK-MEL-5) of the same compound?
Answer: 2.81 µM (inactive)

Question: What about the GI50 (ACHN) of the same compound?
Answer: 3.37 µM (inactive)

Question: What about the GI50 (EKVX) of the same compound?
Answer: 15.5 µM (inactive)

Question: And the GI50 (BT-549)?
Answer: 1.75 µM (inactive)

Question: What about the GI50 (SF-295) of the same compound?
Answer: 24 µM (inactive)

Question: What about the GI50 (OVCAR-8) of the same compound?
Answer: 17.9 µM (inactive)

Question: And the GI50 (MCF7)?
Answer: 4.45 µM (inactive)

Question: What about the GI50 (MDA-N) of the same compound?
Answer: 6.44 µM (inactive)

Question: And the GI50 (IGROV-1)?
Answer: 14.4 µM (inactive)

Question: What about the GI50 (UACC-62) of the same compound?
Answer: 18.6 µM (inactive)

Question: And the GI50 (SF-539)?
Answer: 23.4 µM (inactive)

Question: And the GI50 (MOLT-4)?
Answer: 0.271 µM (active)

Question: And the GI50 (Malme-3M)?
Answer: 5.75 µM (inactive)

Question: And the GI50 (K562)?
Answer: 2.2 µM (inactive)

Question: And the GI50 (HT-29)?
Answer: 6.01 µM (inactive)

Question: What about the GI50 (DU-145) of the same compound?
Answer: 16.3 µM (inactive)

Question: What about the GI50 (HCT-15) of the same compound?
Answer: 5.13 µM

Question: And the GI50 (HCT-116)?
Answer: 6.07 µM (inactive)

Question: What about the GI50 (NCI-H460) of the same compound?
Answer: 7.46 µM (inactive)

Question: And the GI50 (SK-MEL-28)?
Answer: 7.18 µM (inactive)

Question: And the GI50 (MDA-MB-435)?
Answer: 2.77 µM (inactive)

Question: And the GI50 (SK-OV-3)?
Answer: 36.2 µM (inactive)

Question: And the GI50 (SNB-19)?
Answer: 16 µM (inactive)

Question: And the GI50 (NCI/ADR-RES)?
Answer: 24.2 µM (inactive)

Question: What about the GI50 (CCRF-CEM) of the same compound?
Answer: 0.1 µM (active)

Question: What about the GI50 (KM12) of the same compound?
Answer: 1.78 µM (inactive)
